Measurements from article PMC10041525, “New Dual Inhibitors of Bacterial Topoisomerases with Broad-Spectrum Antibacterial Activity and In Vivo Efficacy against Vancomycin-Intermediate Staphylococcus aureus” (Journal of Medicinal Chemistry, 2023).
Like-named read-outs stand apart in the source and are kept apart here.

Assays:
[1] = mitochondrial toxicity glu/gal assay; type: cell-based; settings: human, 0.1 µM, read-out: cell viability (ATP), % of control
Experimental: HepG2 cells were seeded in two 96-well plates at a density of 50,000 cells per well in 100 μL of growth medium. For the first plate, the growth medium contained glucose and for the second plate, it contained galactose. Cells were incubated overnight in a 5% CO2 atmosphere at 37 °C and allowed to attach onto the wells. […] The medium contained positive control (Rotenone). […] Luminescence was measured with Tecan Infinite 200 pro luminometer, and the values from each well treated with compound were compared to the values given by the negative control (medium only). The inhibition of mitochondrial function was determined by comparing ATP levels in galactose and glucose exposed cells. […]

DNA gyrase from E. coli = target: T1, DNA gyrase from E. coli (Escherichia coli, UniProt P0AES6); experiment: supercoiling HTS plate assay; type: biochemical; settings: IC50 [nM] E. coli DNA gyrase
T1 construct: purchased Inspiralis
Experimental: (§1) All compounds were tested for their inhibitory activities against DNA gyrase and topo IV from E. coli in supercoiling and relaxation high-throughput plate assays, respectively. Our new series of inhibitors were then tested against a panel of Gram-positive and Gram-negative bacteria.
(§2) Seven concentrations of the inhibitors were used to determine IC50 values which were then calculated with GraphPad Prism 6.0 software. Three independent measurements were performed to determine IC50 values, and mean values are reported as the final result.

topo IV from E. coli = target: T2, topo IV from E. coli (Escherichia coli, UniProt P20083); experiment: relaxation HTS plate assay; type: biochemical
T2 construct: purchased Inspiralis
T2 sequence (P0AFI2 whole entry): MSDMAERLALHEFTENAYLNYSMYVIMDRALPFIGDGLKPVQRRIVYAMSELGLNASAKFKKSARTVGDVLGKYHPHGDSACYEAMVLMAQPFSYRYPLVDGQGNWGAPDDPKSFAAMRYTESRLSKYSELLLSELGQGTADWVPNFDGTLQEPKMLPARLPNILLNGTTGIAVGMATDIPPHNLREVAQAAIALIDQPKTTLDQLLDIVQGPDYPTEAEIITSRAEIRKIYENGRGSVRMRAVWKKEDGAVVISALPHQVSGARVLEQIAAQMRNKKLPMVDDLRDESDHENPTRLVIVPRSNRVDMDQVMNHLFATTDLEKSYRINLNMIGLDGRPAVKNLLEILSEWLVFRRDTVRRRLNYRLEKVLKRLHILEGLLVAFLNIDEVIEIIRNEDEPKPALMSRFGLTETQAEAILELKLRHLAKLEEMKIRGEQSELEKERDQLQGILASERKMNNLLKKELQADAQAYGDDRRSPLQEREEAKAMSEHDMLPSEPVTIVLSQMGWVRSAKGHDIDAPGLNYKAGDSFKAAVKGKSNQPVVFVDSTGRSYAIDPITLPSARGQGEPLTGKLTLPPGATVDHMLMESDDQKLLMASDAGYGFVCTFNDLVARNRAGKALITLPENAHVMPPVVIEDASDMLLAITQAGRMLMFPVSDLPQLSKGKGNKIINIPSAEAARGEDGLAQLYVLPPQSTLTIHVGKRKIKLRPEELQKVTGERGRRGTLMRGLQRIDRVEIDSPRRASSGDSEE
T2 sequence (P20083 whole entry): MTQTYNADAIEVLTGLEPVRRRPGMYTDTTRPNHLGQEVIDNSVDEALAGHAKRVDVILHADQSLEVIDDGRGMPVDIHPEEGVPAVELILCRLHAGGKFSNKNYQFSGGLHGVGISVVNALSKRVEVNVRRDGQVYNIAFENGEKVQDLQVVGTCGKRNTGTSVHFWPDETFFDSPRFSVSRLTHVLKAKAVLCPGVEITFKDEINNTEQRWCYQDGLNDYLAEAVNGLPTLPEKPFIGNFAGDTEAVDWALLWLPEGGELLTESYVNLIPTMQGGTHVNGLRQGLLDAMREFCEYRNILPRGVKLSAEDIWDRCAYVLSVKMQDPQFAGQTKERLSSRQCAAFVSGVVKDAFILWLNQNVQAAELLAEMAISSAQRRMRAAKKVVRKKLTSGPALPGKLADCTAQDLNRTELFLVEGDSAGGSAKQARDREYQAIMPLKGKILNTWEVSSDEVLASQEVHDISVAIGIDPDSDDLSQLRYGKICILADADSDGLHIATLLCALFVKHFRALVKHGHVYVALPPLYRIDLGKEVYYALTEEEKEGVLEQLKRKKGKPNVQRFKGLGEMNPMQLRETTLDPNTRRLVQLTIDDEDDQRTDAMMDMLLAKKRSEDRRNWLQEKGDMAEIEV
Experimental: as §1, §2

S. aureus ATCC 29213 = experiment: MIC broth microdilution (CLSI); type: cell-based; settings: Staphylococcus aureus, ATCC29213
Experimental: (§3) Cation-adjusted Mueller Hinton broth 2 (MHBII) was used for bacterial growth under standard laboratory conditions and for antimicrobial susceptibility tests. MHBII broth was prepared by dissolving 22 g of MHBII powder [containing beef extract (3 g), acid hydrolysate of casein (17.5 g), and starch (1.5 g); Becton Dickinson and Co.] in 1 L of water. To prepare MHBII agar, 14 g of agar (Bacto; Molar Chemicals) was added to 1 L of broth.
(§4) Bacterial strains were inoculated onto MHBII agar plates and grown overnight at 37 °C. Next, three individual colonies from each strain were inoculated into 1 mL of MHBII medium and propagated at 37 °C overnight, with agitation at 250 rpm. For Enterococcus sp., the cells were plated in brain–heart infusion [(BHI) medium] agar plates, and BHI broth was used to determine the MICs. […] Following the dilutions, each well was seeded with 5 × 10^4 bacterial cells (in 100 μL final volume). Each measurement was performed in three parallel replicates, and to avoid possible edge effects in the microwell plates, the outside rows (A, H) were filled with sterile medium. Following the inoculations, the plates were covered with the lids and wrapped in polyethylene plastic bags, to minimize evaporation but to allow O2 transfer. […] After incubation, the OD600 of each well was measured using a microplate reader (Synergy 2; Biotek).

E. coli ATCC 25922 = experiment: MIC broth microdilution (CLSI); type: cell-based; settings: Escherichia coli, ATCC25922; read-out: MIC
Experimental: as §3, with “MICs (Tables 1 and S1–S3) were determined with a standard serial broth microdilution technique according to Clinical and Laboratory Standards Institute (CLSI) guidelines.[45] Cation-adjusted” for “Cation-adjusted”
(§5) Bacterial strains were inoculated onto MHBII agar plates and grown overnight at 37 °C. Next, three individual colonies from each strain were inoculated into 1 mL of MHBII medium and propagated at 37 °C overnight, with agitation at 250 rpm. For Enterococcus sp., the cells were plated in brain–heart infusion [(BHI) medium] agar plates, and BHI broth was used to determine the MICs. […] The highest final DMSO concentration in the experiments was 0.64% (in the case of the 64 μg/mL concentration of the inhibitor). Following the dilutions, each well was seeded with 5 × 10^4 bacterial cells (in 100 μL final volume). Each measurement was performed in three parallel replicates, and to avoid possible edge effects in the microwell plates, the outside rows (A, H) were filled with sterile medium. Following the inoculations, the plates were covered with the lids and wrapped in polyethylene plastic bags, to minimize evaporation but to allow O2 transfer. The plates were incubated at 37 °C under continuous shaking at 150 rpm for 18 h. After incubation, the OD600 of each well was measured using a microplate reader (Synergy 2; Biotek). The MICs were defined as the antibiotic concentrations which inhibited the growth of the bacterial cultures; that is, the drug concentration where the average OD600 increment of the three technical replicates was below 1.5-fold the background OD increment.

A. baumannii ATCC 19606 = experiment: MIC broth microdilution (CLSI); type: cell-based; settings: Acinetobacter baumannii, ATCC19606
Experimental: as §3, with “MICs (Tables 1 and S1–S3) were determined with a standard serial broth microdilution technique according to Clinical and Laboratory Standards Institute (CLSI) guidelines.[45] Cation-adjusted” for “Cation-adjusted”
as §5
(§6) cMIC, minimum inhibitory concentration
(§7) Bacterial strains that were used: S. aureus ATCC 29213, S. aureus (MRSA) ATCC 43300, S. aureus (VISA) ATCC 700699, E. faecalis ATCC 29212, E. faecium ATCC 700221,
(§8) E. coli ATCC 25922, P. aeruginosa ATCC 27853 (PAO1 for compounds 7l, 8b, 14), A. baumannii ATCC 17978 (ATCC 19606 for compounds 7l, 8b, 14), K. pneumoniae ATCC
(§9) Measurements were performed according to the Clinical and Laboratory Standards Institute guidelines, with three independent measurements.

K. pneumoniae ATCC 13883 = experiment: MIC broth microdilution (CLSI); type: cell-based; settings: Klebsiella pneumoniae, ATCC13883; ATCC 13883 used for 7l, 8b, 14, 16b, 16c
Experimental: as §3, with “MICs (Tables 1 and S1–S3) were determined with a standard serial broth microdilution technique according to Clinical and Laboratory Standards Institute (CLSI) guidelines.[45] Cation-adjusted” for “Cation-adjusted”
as §5, §6, §7, §8, §9

P. aeruginosa PAO1 = experiment: MIC broth microdilution (CLSI); type: cell-based; settings: Pseudomonas aeruginosa; PAO1 used for 7l, 8b, 14, 16b, 16c
Experimental: as §3, with “MICs (Tables 1 and S1–S3) were determined with a standard serial broth microdilution technique according to Clinical and Laboratory Standards Institute (CLSI) guidelines.[45] Cation-adjusted” for “Cation-adjusted”
as §5, §6, §7, §8, §9

A. baumannii ATCC 17978 = experiment: MIC broth microdilution (CLSI); type: cell-based; settings: Acinetobacter baumannii, ATCC17978; read-out: MIC [µg/mL] (A. baumannii ATCC 17978)
Experimental: as §3, §4

[2] = read-out: MIC [µg/mL](S. aureus ATCC 29213)
[3] = ATCC 19606 used for 7l, 8b, 14, 16b, 16c, read-out: MIC

Compound | viability at 24 h, 0.1 µM ([1]; galactose) [%] | viability at 24 h, 0.1 µM ([1]; glucose) [%] | IC50 (DNA gyrase from E. coli) [nM] | IC50 (topo IV from E. coli; IC50 [nM] E. coli TopoIV) [nM] | MIC (S. aureus ATCC 29213; read-out: MIC) [µg/mL] | MIC (S. aureus ATCC 29213; [2]) [µg/mL] | MIC (E. coli ATCC 25922) [µg/mL] | MIC (A. baumannii ATCC 19606; [3]) [µg/mL] | MIC (A. baumannii ATCC 19606; read-out: MIC [µg/mL] (A. baumannii ATCC 19606 for compounds 7l, 8b, 14)) | MIC (K. pneumoniae ATCC 13883) [µg/mL] | MIC (P. aeruginosa PAO1) [µg/mL] | IC50 (topo IV from E. coli; read-out: IC50) [nM] | MIC (A. baumannii ATCC 17978) [µg/mL]
C=C(C)[C@H]1Cc2c(ccc3c2O[C@@H]2COc4cc(OC)c(OC)cc4[C@@H]2C3=O)O1 [Rot, Rotenone] | 1 | 64 |  |  |  |  |  |  |  |  |  |  | 
Cc1[nH]c(C(=O)Nc2nc3c(N4CCNCC4)cc(C(=O)O)cc3s2)c(Cl)c1Cl.Cl [8b, 4-(6-Carboxy-2-(3,4-dichloro-5-methyl-1H-pyrrole-2-carboxamido)benzo[d]thiazol-4-yl)piperazin-1-ium Chloride] |  |  | < 10 | 120 ± 15 | 32 | 32 | 16 | 64 | 64 | 64 | > 64 |  | 
Cc1[nH]c(C(=O)Nc2nc3c(N4CCOCC4)cc(C(=O)O)cc3s2)cc1C#N [16c, 2-(4-Cyano-5-methyl-1H-pyrrole-2-carboxamido)-4-morpholinobenzo[d]thiazole-6-carboxylic Acid] |  |  | 32 ± 9 |  | > 64 | > 64 | > 64 | > 64 |  | > 64 | > 64 | 440 | > 64
